Common to all, as to type: cell-based
Test [1] deals with Staphylococcus aureus N315 (MRSA). The experiment in a line: MIC by microbroth dilution. The conditions noted are these: 16 h, 30° C., n.i. = no inhibition up to 67 μg/ml. The gist of the method: (§1)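 Read-out: A600 after 16 h at 30° C. with shaking; MIC from sigmoidal fit. Cells from overnight EBS cultures set to OD600 0.01, compound (in DMSO) serially diluted, duplicates.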
Background: Dilution methods test growth across graded concentrations, often in twofold steps.

For test [2], the system named is Pseudomonas aeruginosa DSM 50071. The experiment in a line: MIC by microbroth dilution. The conditions noted are these: 16 h, 30° C., n.i. = no inhibition up to 67 μg/ml. Summed up: as §1
For test [3], the system named is Staphylococcus aureus (MRSA) DSM-11822. As to the kind of experiment: MIC by microbroth dilution. Particulars: microbroth dilution, 16 h, 30° C., n.i. = no inhibition up to 67 μg/ml. The gist of the method:
as §1

The test system of test [4] is Staphylococcus camosus DSM 20501. As to the kind of experiment: MIC by microbroth dilution. The conditions noted are these: 30° C., n.i. = no inhibition up to 67 μg/ml. The gist of the method:
as §1

The next test relates to Bacillus subtilis DSM 10. The experiment in a line: MIC by microbroth dilution. The conditions noted are these: Bacillus subtilis, DSM10, 16 h, 30° C., n.i. = no inhibition up to 67 μg/ml, read-out: MIC. Summed up:
as §1

The test system of test [5] is Chromobacterium violaceum DSM 30191. The experiment in a line: MIC by microbroth dilution. Particulars: 16 h, 30° C., n.i. = no inhibition up to 67 μg/ml. Summed up:
as §1

Test [6] relates to Nocardioides simplex DSM 20130. As to the kind of experiment: MIC by microbroth dilution. Particulars: Pimelobacter simplex, DSM20130, 16 h, 30° C., n.i. = no inhibition up to 67 μg/ml, read-out: MIC. Summed up: as §1
The test system of test [7] is Escherichia coli DSM 1116. The experiment in a line: MIC by microbroth dilution. Particulars: 16 h, 30° C., n.i. = no inhibition up to 67 μg/ml. Summed up: as §1
The test system of test [8] is Staphylococcus aureus DSM 346. As to the kind of experiment: MIC by microbroth dilution. The conditions noted are these: Staphylococcus aureus, DSM346, 16 h, 30° C., n.i. = no inhibition up to 67 μg/ml, read-out: MIC. Summed up:
as §1

The test system of test [9] is Micrococcus luteus DSM 20030. The experiment in a line: MIC by microbroth dilution. Particulars: Micrococcus luteus, DSM20030, 16 h, 30° C., n.i. = no inhibition up to 67 μg/ml, read-out: MIC. Summed up:
as §1

The subject of test [10] is Staphylococcus aureus Mu50 (MRSA/VRSA) ATCC 700699. The experiment in a line: MIC by microbroth dilution. The conditions noted are these: 16 h, 30° C., n.i. = no inhibition up to 67 μg/ml. Summed up: as §1
Test [11] concerns Staphylococcus aureus Newman. The experiment in a line: MIC by microbroth dilution. The conditions noted are these: 16 h, 30° C., n.i. = no inhibition up to 67 μg/ml. Summed up: as §1
Test [12] concerns Mycobacterium sp. DSM 43270. As to the kind of experiment: MIC by microbroth dilution. The conditions noted are these: 16 h, 30° C., n.i. = no inhibition up to 67 μg/ml. The gist of the method: as §1
The subject of test [13] is Mycobacterium diemhoferi DSM 43524. As to the kind of experiment: MIC by microbroth dilution. The conditions noted are these: Mycobacterium, DSM43524, 16 h, 30° C., n.i. = no inhibition up to 67 μg/ml, read-out: MIC. The gist of the method:
as §1

The test system of test [14] is Paenibacillus polymyxa DSM 36. The experiment in a line: MIC by microbroth dilution. The conditions noted are these: Paenibacillus polymyxa, DSM36, 16 h, 30° C., n.i. = no inhibition up to 67 μg/ml, read-out: MIC. Summed up:
as §1

Test [15] deals with methicillin-resistant S. aureus (MRSA). As to the kind of experiment: Bouillon dilution assay (MIC90). Particulars: Staphylococcus aureus, tryptic soy broth, 37° C., 16 h. On the procedure: (§2) Before incubation, 3 was added in decreasing concentrations ([…] to 12.5 μg/ml). After incubation, the OD600 was measured. The experiment was run in triplicate. Ciprofloxacin was used as a positive control.

The subject of the next test is S. auricularis A. The experiment in a line: Bouillon dilution assay (MIC90). The conditions noted are these: Staphylococcus auricularis, tryptic soy broth, 37° C., 16 h. Here is the method:
as §2

The subject of test [16] is Mycobacterium vaccae IMET 10670. As to the kind of experiment: Agar diffusion assay. Particulars: Mycolicibacterium vaccae, IMET10670; 50 μL of 0.5 mg in 1 mL methanol per 7 mm hole; n.a. = no activity observed; read-out: diameter of inhibition zone. On the procedure:
(§3) Antimicrobial activities of the gulmirecins were determined in a primary screen against Bacillus subtilis ATCC 6633, Staphylococcus aureus SG511, Staphylococcus auricularis DSM 20609, Mycobacterium vaccae IMET 10670, Pseudomonas aeruginosa K799/61, Escherichia coli SG458, Sporobolomyces salmonicolor SBUG 549, Candida albicans ATCC14053 and Penicillium notatum JP 36. To this end, holes with 7 mm diameter were aseptically punched in the respective agar medium. Subsequently, the agar plates were inoculated with the test organisms. 0.5 mg of every test compound was dissolved in 1 mL of methanol, and 50 μL of this solution was transferred to a single hole. Ciprofloxacin and amphotericin B served as positive controls. After evaporation of the solvent, the agar plates were incubated depending on the growth conditions of the test organisms. […] The test results are shown in Table 6 below, wherein the given values represent the diameters of the respective inhibition zone in the agar diffusion assay.
(In agar diffusion tests the substance spreads into inoculated agar from a disc or well.)

The subject of test [17] is Bacillus subtilis ATCC 6633. As to the kind of experiment: Agar diffusion assay. The conditions noted are these: ATCC6633, 50 μL of 0.5 mg in 1 mL methanol per 7 mm hole, n.a. = no activity observed, read-out: diameter of inhibition zone. Here is the method:
as §3

[18] abbreviates: Staphylococcus aureus, read-out: MIC.

Converted amounts (≈) assume the structure as drawn. Like-named read-outs stand apart in the source and are kept apart here.

For 2 compounds, MIC, MIC90 and zone of inhibition results are on record in patent publication US20200231562A1, “NOVEL MACROLIDE ANTIBIOTICS” (HELMHOLTZ-ZENTRUM FÜR INFEKTIONSFORSCHUNG GMBH, priority 2014, published 2020).

In general, MIC refers to the lowest concentration that inhibits growth of the organism. `C/C=C(/C)[C@H]1C/C=C(\C)[C@@H](O[C@H]2O[C@H](CO)[C@@H](O)[C@@H]2O)[C@H](OC(=O)CC(C)C)C(=O)C/C=C(/C)C(=O)O1` [Compound 1, disciformycin A]: the MIC is 8.0 µg/mL (≈ 15.2 µM) in [1]; 8 µg/mL (≈ 15.2 µM) in [1] (Staphylococcus aureus, MRSA, read-out: MIC); “n.i” in test [2]; 4 µg/mL (≈ 7.62 µM) in test [3] (setting [18]); 4.0 µg/mL (≈ 7.62 µM) in test [3]; 7.8 µg/mL (≈ 14.9 µM) in [4] (16 h). Moreover, the MIC in [4] (Staphylococcus, DSM20501, 16 h, read-out: MIC) was 7.8 µg/mL (≈ 14.9 µM); in the test on Bacillus subtilis DSM 10, 4.2 µg/mL (≈ 8.01 µM); in test [5] it was “n.i”; in test [6] it was 33.3 µg/mL (≈ 63.5 µM); in [7] it was “n.i”; in test [8], 16.6 µg/mL (≈ 31.6 µM). In addition, the MIC in [9] was 67 µg/mL (≈ 128 µM); in test [10], 2.0 µg/mL (≈ 3.81 µM); in [10] (setting [18]), 2 µg/mL (≈ 3.81 µM); in test [11], 8.0 µg/mL (≈ 15.2 µM); in [11] (Staphylococcus aureus, NEWMAN, read-out: MIC) it was 8 µg/mL (≈ 15.2 µM); in [12], “n.i”. Moreover, the MIC was 33.3 µg/mL (≈ 63.5 µM) in [13] and 16.6 µg/mL (≈ 31.6 µM) in test [14].

In general, MIC90 refers to the lowest concentration that inhibits either 90% of growth or 90% of the strains tested, depending on the study. Lower therefore signals greater potency. Broadly, the zone of inhibition is the size of the clear area around the sample on an inoculated plate. For `C/C=C(/C)[C@H]1C/C=C(\C)[C@@H](O[C@H]2O[C@H](CO)[C@@H](O)[C@@H]2O)[C@H](OC(=O)CC(C)C)C(=O)C[C@@H](O)[C@H](C)C(=O)O1` [Compound 3, gulmirecin A], the MIC90 in test [15] was determined as 23.1 µM (≈ 12.5 µg/mL); against S. auricularis A, 22.5 µM (≈ 12.2 µg/mL). The zone of inhibition at 25 µg/hole in test [16] was determined as 17 mm; in test [17], 35 mm.
